Test results: US10703748B2, “Diazanaphthalen-3-yl carboxamides and preparation and use thereof” (Samumed, LLC, priority 2017, dated 2020)
pEC50: −log10 of the molar value.

Columns and labels:
[1] = test system: α-smooth muscle actin (aSMA) positive LL29 cells; test: Inhibition of the fibrotic process: αSMA staining in TGF-β1 treated LL29 fibroblasts from IPF patients; conditions: Homo sapiens, Fibroblast; for pEC50: 96 h; for inhibition at 10 µM: read-out: percentage in parentheses after EC50 >10
Experimental: Each compound was dissolved in DMSO as a 10 mM stock and used to prepare compound source plates. […] LL29 cells were plated at 1,500 cells/well in 70 μL/well F12 medium supplemented with 1% Fetal Bovine Serum. […] Wells treated with TGF-β1 and containing DMSO were used as positive control, and cells with only DMSO were negative control. Cells were incubated at 37° C. and 5% CO2 for 4 days. Following incubation for 4 days, SYTOX green nucleic acid stain (Life Technologies [Thermo Fisher Scientific]) was added to the wells at a final concentration of 1 μM and incubated at room temperature for 30 min. Cells were then fixed using 4% formaldehyde (Electron Microscopy Sciences), washed 3 times with PBS followed by blocking and permeabilization using 3% Bovine Serum Albumin (BSA; Sigma) and 0.3% Triton X-100 (Sigma) in PBS.

[2] = test system: Wnt-responsive Sp5-Luc reporter in SW480 colon carcinoma cells; test: Screening assay for Wnt activity (Sp5-Luc reporter gene assay); conditions: Homo sapiens, SW480
DYRK1A kinase = DYRK1A kinase (Homo sapiens, UniProt Q13627); test: DYRK1A kinase activity (Ser/Thr 18 peptide Z-lyte FRET assay); type: biochemical; conditions: recombinant DYRK1A, 30 μM ATP, one hour at room temperature;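 also: kinase activity read as coumarin/fluorescein emission ratio after development step, with unphosphorylated and phosphorylated peptide forms setting 0% and 100% controls, values from dose-response curves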
[3] = test system: secreted cytokines TNFα, IL-6 and KC-GRO; test: Secreted cytokines in Lipopolysaccharide-stimulated BV-2 cells (Table 9 does not say which cytokine); type: cell-based, mouse; conditions: Mus musculus, BV-2, 5 h; read-out: EC50
[4] = test system: SW480 colon carcinoma cells; test: Cell viability assay (CellTiter-Glo); conditions: Homo sapiens, SW480, 96 h
Experimental: Representative compounds were screened using the assay procedure to assess the effect on cell viability as described below.
SW480 colon carcinoma cells were transduced with a lentiviral vector expressing luciferase with a human Sp5 promoter consisting of a sequence of eight TCF/LEF binding sites. […] These stably transduced SW480 cells were expanded in cell culture and used for all further screening activities. Each compound was dissolved in DMSO as a 10 mM stock and used to prepare compound source plates.
For the Cell Viability Assays, the cells were plated at 2,000 cells/well in 384-well plates with a DMEM medium containing 1% fetal bovine serum, and 1% Penicillin-Streptomycin and incubated for four days hours at 37° C. and 5% CO2. Eight replicates of DMSO-treated cells served as controls and cells treated with compound were performed in duplicate.
After incubation, 10 μL of CellTiter-Glo (Promega) was added to each well allowed to incubate for approximately 12 minutes. This reagent “results in cell lysis and generation of a luminescent signal proportional to the amount of ATP present. The amount of ATP is directly proportional to the number of cells present in culture, in agreement with previous reports. The CellTiter-Glo Assay generates a “glow-type” luminescent signal, produced by the luciferase reaction (Promega.com)”.
Dose-response curves were generated and EC50 concentration values were calculated using non-linear regression curve fit in the GraphPad Prism (San Diego, Calif.) or Dotmatics' Studies Software (Bishops Stortford, UK).

IL-6 = IL-6 inhibition in LPS-stimulated human peripheral blood mononuclear cells (HTRF); conditions: Homo sapiens, PBMC; for pEC50: 22 h; for inhibition at 10 µM: read-out: percentage in parentheses after EC50 >10
GSK3β kinase = GSK3β kinase (Homo sapiens, UniProt P49841); test: GSK3β kinase activity (Ser/Thr 09 peptide Z-lyte FRET assay); type: biochemical; conditions: recombinant kinase, 46 μM ATP, one hour at room temperature; read-out: EC50
Sequence of GSK3β kinase (P49841 whole entry): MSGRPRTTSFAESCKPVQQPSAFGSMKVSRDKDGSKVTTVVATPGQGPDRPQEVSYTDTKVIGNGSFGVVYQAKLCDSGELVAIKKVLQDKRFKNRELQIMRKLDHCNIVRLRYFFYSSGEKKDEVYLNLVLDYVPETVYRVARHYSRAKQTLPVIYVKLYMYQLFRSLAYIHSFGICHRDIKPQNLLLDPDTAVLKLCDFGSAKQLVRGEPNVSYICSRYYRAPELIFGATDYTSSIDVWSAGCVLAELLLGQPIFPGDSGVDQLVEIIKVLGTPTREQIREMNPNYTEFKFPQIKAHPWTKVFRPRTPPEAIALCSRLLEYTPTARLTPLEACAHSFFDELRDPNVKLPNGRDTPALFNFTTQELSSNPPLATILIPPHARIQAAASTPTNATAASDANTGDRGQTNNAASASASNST

pEC50 [2]	pEC50 (DYRK1A kinase)	pEC50 [3]	pEC50 [4]	pEC50 (IL-6)	pEC50 (GSK3β kinase)	SMILES	pEC50 [1]	inhibition at 10 µM [1] [%]	inhibition at 10 µM (IL-6) [%]
5.72	7.74	6.46	5.02	< 5.00	< 5.00	CN1CCc2ccc(C(=O)Nc3ncc4ccc(-c5cnn(C)c5)cc4n3)cc2C1 [Compound 1109, 2-Methyl-N-(7-(1-methyl-1H-pyrazol-4-yl)quinazolin-2-yl)-1,2,3,4-tetrahydroisoquinoline-7-carboxamide]	< 5.00	16.4	6.3
6.49	7.89	6.26	5.54	5.50	5.60	CN1CCC(n2cc(C(=O)Nc3ncc4ccc(-c5cnn(C)c5)cc4n3)cn2)CC1 [Compound 1136, N-(7-(1-Methyl-1H-pyrazol-4-yl)quinazolin-2-yl)-1-(1-methylpiperidin-4-yl)-1H-pyrazole-4-carboxamide]	5.84	–	–
6.32	8.40	5.96	6.16	5.44	< 5.00	CN1CCN(c2cc(C(=O)Nc3ncc4ccc(-c5cnn(C)c5N)cc4n3)ccn2)CC1 [Compound 1210, N-(7-(5-Amino-1-methyl-1H-pyrazol-4-yl)quinazolin-2-yl)-2-(4-methylpiperazin-1-yl)isonicotinamide]	5.85	–	–
5.74	7.72	6.06	5.28	< 5.00	5.25	Cn1ncc(-c2ccc3cnc(NC(=O)c4ccnc(N5CCOCC5)c4)nc3c2)c1CN1CCOCC1 [Compound 1220, N-(7-(1-Methyl-5-(morpholinomethyl)-1H-pyrazol-4-yl)quinazolin-2-yl)-2-morpholinoisonicotinamide]	< 5.00	5.5	0
6.13	8.10	6.00	5.87	< 5.00	6.34	CN(C)C1CCN(c2cc(C(=O)Nc3ncc4ccc(-c5cn(C)nn5)cc4n3)ccn2)CC1 [Compound 1282, 2-(4-(Dimethylamino)piperidin-1-yl)-N-(7-(1-methyl-1H-1,2,3-triazol-4-yl)quinazolin-2-yl)isonicotinamide]	5.60	–	42.4

Further lines, the molecule ahead of its results:

SMILES	pEC50 [2]	pEC50 (DYRK1A kinase)	pEC50 [3]	pEC50 [4]	pEC50 (IL-6)	pEC50 (GSK3β kinase)	pEC50 [1]	inhibition at 10 µM [1] [%]	inhibition at 10 µM (IL-6) [%]
CN1CCN(Cc2cccc(C(=O)Nc3ncc4ccc(-c5cnn(C)c5)cc4n3)c2)CC1 [Compound 1079, N-(7-(1-Methyl-1H-pyrazol-4-yl)quinazolin-2-yl)-3-((4-methylpiperazin-1-yl)methyl)benzamide]	6.00	7.72	5.85	5.47	< 5.00	5.01	< 5.00	14.3	12.7
Cn1cc(-c2ccc3cnc(NC(=O)c4ccc5ccoc5c4)nc3c2)cn1 [Compound 1116, N-(7-(1-Methyl-1H-pyrazol-4-yl)quinazolin-2-yl)benzofuran-6-carboxamide]	6.10	7.82	6.02	5.52	< 5.00	< 5.00	5.57	–	3.8
Cn1cc(-c2ccc3cnc(NC(=O)c4ccc5nccnc5c4)nc3c2)cn1 [Compound 1123, N-(7-(1-Methyl-1H-pyrazol-4-yl)quinazolin-2-yl)quinoxaline-6-carboxamide]	5.71	7.89	6.00	5.21	< 5.00	5.32	< 5.00	22	6.5
CC(C)OC(=O)N1CCC(n2cc(C(=O)Nc3ncc4ccc(-c5cnn(C)c5)cc4n3)cn2)CC1 [Compound 1141, Isopropyl 4-(4-((7-(1-methyl-1H-pyrazol-4-yl)quinazolin-2-yl)carbamoyl)-1H-pyrazol-1-yl)piperidine-1-carboxylate]	6.38	8.10	6.75	6.14	5.50	5.39	5.86	–	–
